Paper PMC10515483, “Structure–Reactivity Studies of 2-Sulfonylpyrimidines Allow Selective Protein Arylation” (Bioconjugate Chemistry, 2023)

Assays:
[1] = Hydrolytic stability in KPi buffer without thiol (NMR); assay type: physicochemical; details: for % degradation: over 12 hours, 50 mM KPi, footnote a: crashing out of solution, no degradation product; for hydrolysis in aqueous buffer (in words): buffer in the absence of GSH
Description: NMR studies: rate constant determination and hydrolytic stability. 850 µL of 50 mM Kpi buffer solution (pH 8.2 or 7), 20 µL of the appropriate pyrimidine stock s olution (100 mM in DMSO -d6), 20 µL of TMSP stock solution (22.2 mM in DI water), 30 µL DMSO -d6, and 80 µL of GSH stock solution (0.25 M in DI water, reactivity only) were successively added/mixed at room temperature, final pH 7.0 or 6.5 (Table S1). 600 µL of this freshly prepared solution was poured into an NMR tube and immediately […]
transferred to the NMR instrument for acquisition. 1H spectra (16 scans) were recorded every 10 minutes under water suppression conditions. Following acquisition, spectra were analysed using […]
order reaction rate constants (k’).

β-catenin ARD = molecular target: T1, β-catenin ARD (Homo sapiens, UniProt P35222); test: Differential scanning fluorimetry (DSF); assay type: binding; details: 100 μM compound; 8 µM β-cat; read-out: Protein thermal stability ΔTm
T1 construct: vector pLipK-ARD (residues 150 – 662) was used; 6xHis-Lip (6xHis, lipoyl domain); made in house; host or cells: E. coli BL21(DE3) pRARE2
T1 sequence (P35222 150-662): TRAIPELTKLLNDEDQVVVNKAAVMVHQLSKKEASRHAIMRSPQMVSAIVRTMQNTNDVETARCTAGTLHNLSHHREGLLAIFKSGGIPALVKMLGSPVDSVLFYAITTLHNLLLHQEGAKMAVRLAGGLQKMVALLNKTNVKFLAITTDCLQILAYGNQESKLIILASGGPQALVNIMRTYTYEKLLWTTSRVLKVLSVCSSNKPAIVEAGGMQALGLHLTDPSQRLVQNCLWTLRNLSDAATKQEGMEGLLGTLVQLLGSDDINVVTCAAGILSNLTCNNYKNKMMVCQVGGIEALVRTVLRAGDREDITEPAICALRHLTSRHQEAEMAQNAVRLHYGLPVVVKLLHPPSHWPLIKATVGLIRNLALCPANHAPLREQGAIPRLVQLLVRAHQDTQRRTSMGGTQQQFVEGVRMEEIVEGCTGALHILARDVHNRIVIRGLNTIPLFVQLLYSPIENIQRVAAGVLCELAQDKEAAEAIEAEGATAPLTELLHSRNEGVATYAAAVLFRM
From the text: We also probed the general effect of 2-SPs on protein stability by using differential scanning fluorimetry (DSF). […] Mutants of the 25 kDa DNA-binding domain of the tumor suppressor p53 are notorious for their reduced thermal stability and denaturation/aggregation propensity.[37] The 56 kDa armadillo domain (ARD) of β-catenin mediates canonical Wnt signaling and plays a central role in embryogenesis and tissue homeostasis.[38] FGE (37 kDa) is the only known activator of human sulfatases, and its stability is susceptible to modification of its cysteines.[39] […]
Human β-catenin armadillo domain. β-catenin sequence was amplified by PCR (KOD DNA polymerase, Merck Millipore) from plasmid templates and cloned into bacterial expression vectors by restriction - free cloning. All plasmids were verified by sequencing. For protein pro duction, bacterial expression vector pLipK-ARD (residues 150 – 662) was used. 6xHis-Lip-tagged recombinant proteins were purified from BL21(DE3) pRARE2 E. coli bacterial strains. Bacteria were grown in LB media supplemented with appropriate antibiotic to OD600 0.6, then dropped to a lower temperature (16 – 24 °C) and induced at OD600 0.8 by addition of 0.4 mM isopropyl β -D-1-thiogalactopyranoside (IPTG). Proteins were expressed overnight and bacteria were subsequently harvested by centrifugation, cell pelle ts shock-frozen in liquid nitrogen and stored at -80°C until use. Cell pellets were re -suspended in lysis buffer (25 mM Tris -HCl pH 8, 200 mM NaCl, 20 mM imidazole, 10 μg/mL DNAse, EDTA -free protease inhibitor cocktail) and lysed with an Emulsiflex C-3 (Avestin). Lysates were cleared by ultracentrifugation (140,000x rcf, 30 minutes, 4°C) and mixed with Ni-NTA agarose. Beads were washed multiple times with lysis buffer, and 6xHisLip - tagged protein was eluted with lysis buffer supplemented with 500 mM imidazo le. The protein was further purified by SEC on a HiPrep26/60 G200 (GE Healthcare) into the final buffer of 200 mM NaCl, 25 mM Tris pH 7.4, 0.06% NaN3, 1 mM DTT, and protein purity was assessed by SDS -PAGE. Pure protein fractions were concentrated using a 1 0 kDa MWCO Vivaspin 20 concentrator (Sartorius) to 17 – 28 mg/mL, then shock frozen as droplets in liquid nitrogen and stored at -80°C until use. […]

p53-Y220C DBD = molecular target: T2, p53-Y220C DBD (Homo sapiens, UniProt P04637, M133L/N239Y/N268D/V203A/Y220C); test: Protein arylation by ESI mass spectrometry; assay type: binding
T2 construct: (residues 94-312); 6xHis/lipoyl domain/TEV protease cleavage site (N, cleaved yes); made in house; host or cells: E. coli C41
Description: In mass spectrometry experiments, we incubated 50 μM purified p53-Y220C DBD in KPi buffer at varying pH’s (6.0–8.0), temperatures (0 and 20 °C), and equivalents of 2-SPs (20–100). Representative 2-SPs were selected to span a broad reactivity range to determine whether trends observed in GSH in vitro assays translate to relative rates of modification of solvent exposed cysteines in folded proteins. […] The same could also be achieved with only 20 equiv of reagent by increasing the temperature to 20 °C, or raising the pH to 8.0. This is an important result because late-stage protein functionalization with bromo- and iodo-(hetero)aromatic motifs is challenging and inaccessible by metal-catalyzed arylation methodologies due to dehalogenation and/or off-target specificity. The introduction of an iodo-(hetero)aromatic motif on the protein surface facilitates drastically the crystal structure resolution with a sharp variation of density. […] Overall, we observed good correlation between GSH and protein experiments.
Figure 4 Biophysical and structural characterization of protein cysteine arylation by 2-SPs. […] Stoichiometry, reaction time/temperature, and pH are indicated in each case. X axis: m/z (Da). Y axis: normalized intensities as a percentage of the most intense peak. Middle: Structure of the modified Y220C mutant (green) superimposed onto the structure of the unmodified protein (gray, PDB entry 6SHZ)[40] showing the region around modified C182 (E) and C277 (F). Hydrogen bonds formed by the pyrimidine are highlighted as dashed yellow lines. 2Fo – Fc electron density maps are shown at a contour level of 1.3σ for segments of chain B including the modified residues C182 and C277. Bottom (F): Protein thermal stability (ΔTm, °C) of p53-Y220C, β-catenin ARD. and FGE, determined by DSF in the presence of 100 μM 2-SP derivatives. […]

| % degradation ([1]; pH 7.0) [%] | ΔTm at 100 µM (β-catenin ARD) [°C] | melting point [°C] | % degradation ([1]; pH 8.2) [%] | hydrolysis in aqueous buffer (in words) [1] | protein arylation by ESI-MS (in words) (p53-Y220C DBD; 100 equiv, 0 °C, pH 7.2) | time to selective double arylation (p53-Y220C DBD; 100 equiv, 0 °C, pH 7.2) [h] | SMILES | protein modification by ESI-MS (in words) (p53-Y220C DBD; 50 μM protein, all conditions tested, even after 4 h at 20 °C) |
| --- | --- | --- | --- | --- | --- | --- | --- | --- |
| < 5 | -0.1 ± 0.1 | 58 | – | – | – | – | CC(C)(C)S(=O)(=O)c1ncccn1 [5a] | – |
| – | -0.1 ± 0.1 | 200 to 201 | – | – | – | – | Nc1ccc(S(=O)(=O)c2ncccn2)cc1 [5b] | – |
| – | -0.1 ± 0.1 | – | – | – | – | – | CCCCS(=O)(=O)c1ncccn1 [5c] | – |
| 12 | -0.1 ± 0.1 | – | 10 | – | – | – | O=S(=O)(c1ccccc1)c1ncccn1 [5d] | – |
| 100 | -6.9 ± 1 | 91 to 92 | 100 | – | – | – | O=S(=O)(CC(F)(F)F)c1ncccn1 [5e] | – |
| 100 | -0.1 ± 0.1 | 225 | 100 | – | – | – | O=[N+]([O-])c1ccc(S(=O)(=O)c2ncccn2)cc1 [5f] | – |
| – | 0.3 ± 0.3 | – | < 5 | – | – | – | O=S(=O)(NCc1ccccc1)c1ncccn1 [5g] | – |
| 100 | -0.1 ± 0.1 | – | 100 | – | – | – | O=S(=O)(Oc1c(F)c(F)c(F)c(F)c1F)c1ncccn1 [5h] | – |

Further lines, the compound ahead of its results:

| SMILES | % degradation ([1]; pH 7.0) [%] | ΔTm at 100 µM (β-catenin ARD) [°C] | melting point [°C] | % degradation ([1]; pH 8.2) [%] | hydrolysis in aqueous buffer (in words) [1] | protein arylation by ESI-MS (in words) (p53-Y220C DBD; 100 equiv, 0 °C, pH 7.2) | time to selective double arylation (p53-Y220C DBD; 100 equiv, 0 °C, pH 7.2) [h] | protein modification by ESI-MS (in words) (p53-Y220C DBD; 50 μM protein, all conditions tested, even after 4 h at 20 °C) |
| --- | --- | --- | --- | --- | --- | --- | --- | --- |
| Cc1cc(C)nc(S(C)(=O)=O)n1 [4a] | < 5 | -0.1 ± 0.1 | – | – | – | – | – | could not detect any protein modification |
| COc1ccnc(S(C)(=O)=O)n1 [4b] | – | -0.1 ± 0.1 | 60 | – | – | – | – | – |
| Cc1ccnc(S(C)(=O)=O)n1 [4c] | – | -0.1 ± 0.1 | – | 10 | – | – | – | – |
| CS(=O)(=O)c1nccc(C(=O)O)n1 [4d] | < 5 | -0.1 ± 0.1 | 115 to 118 | < 5 | – | – | – | – |
| CS(=O)(=O)c1nccc(-c2ccccc2)n1 [4e] | < 5 | -0.1 ± 0.1 | – | 50 | – | – | – | – |
| COc1cc(OC)nc(S(C)(=O)=O)n1 [4f, 4,6-dimethoxy-2-methylsulfonylpyrimidine] | – | -0.1 ± 0.1 | – | – | – | – | – | – |
| CS(=O)(=O)c1nccc(N)n1 [4g] | 5 | -0.1 ± 0.1 | 166 | – | – | – | – | – |
| CS(=O)(=O)c1ncc(Br)c(C(=O)O)n1 [4i] | – | -0.1 ± 0.1 | – | – | – | – | – | – |
| CS(=O)(=O)c1nccc(C(N)=O)n1 [4j] | – | -0.3 ± 0.3 | – | – | – | – | – | – |
| COC(=O)c1ccnc(S(C)(=O)=O)n1 [4k] | 77 | -0.1 ± 0.1 | 80 | 100 | – | – | – | – |
| CS(=O)(=O)c1nccc(C(F)(F)F)n1 [4l] | 17 | -1.7 ± 0.4 | 82 | 65 | partial, slow hydrolysis | – | – | – |
| CS(=O)(=O)c1ncc(-c2ccccc2)cn1 [4p] | 78 | -0.1 ± 0.1 | 180 | 78 | – | – | – | – |
| CS(=O)(=O)c1ncccn1 [4q, 2-methylsulfonylpyrimidine] | < 5 | -0.1 ± 0.1 | – | < 5 | – | – | – | – |
| CS(=O)(=O)c1ncc(Br)cn1 [4t] | < 5 | -0.7 ± 0.1 | – | < 5 | – | completely selective double arylation | 2.5 | – |
| CS(=O)(=O)c1ncc(I)cn1 [4u] | < 5 | -0.1 ± 0.1 | 56 | 14 | – | completely selective double arylation | – | – |
| CS(=O)(=O)c1ncc(C(=O)O)cn1 [4v] | 18 | -1.3 ± 0.1 | 138 | – | – | – | – | – |
| CS(=O)(=O)c1ncc(C(F)(F)F)cn1 [4x] | 97 | -3.1 ± 0.6 | – | 100 | partial, slow hydrolysis | – | – | – |
